Calls of active or inactive are those of the source.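 Rule for the calls: active = compounds giving half or more protection of infected cells from virus-caused growth loss, again on retest; inactive = the rest.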
Test system: CEM cells HIV-1 protection, formazan growth assay
Experiment: NCI AIDS Antiviral Assay
Settings: for IC50: measured here: growth of uninfected CEM cells
Outline: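 Steps: treat uninfected and HIV-1-infected human CEM cells at five drug levels; quantify growth by soluble formazan; retest any compound reaching 50% protection; classify actives from the retest.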

Structure (SMILES)	EC50	IC50	outcome
CC1(C)C=C(S(=O)(=O)c2ccccc2)Oc2ccccc2O1	> 200 µM	132 µM	
O=c1[nH]c(CO)nc(O)c1Cl	> 200 µM	> 200 µM	
NC1=C(c2ccccc2)C(=O)c2ccccc21	> 61.7 µM	> 61.7 µM	
Clc1ccccc1CSc1ccc2nncc(SCc3ccccc3Cl)c2c1	> 34.7 µM	> 34.7 µM	
OC(CCN1CCCCCC1)(Cc1ccccc1)c1ccccc1 (stereo not drawn)	> 200 µM	81.3 µM	
CCOC(=O)C(=O)Nc1ccccc1C(F)(F)F	> 363 µM	> 363 µM	
N#C/C(=C\c1ccc(Cl)cc1)c1ccccc1[N+](=O)[O-]	> 200 µM	120 µM	
CSC(SC)=C1CC(=O)Nc2ccccc2C1=O	> 200 µM	58.9 µM	
COc1ccc(OC)c(NC(=O)Nc2nccs2)c1	> 200 µM	> 200 µM	
C[C@H](CCCN1CCN(C)CC1)[C@H]1CC[C@H]2[C@@H]3CC[C@@H]4C[C@H](O)CC[C@]4(C)[C@H]3CC[C@]12C	> 50.1 µM	3.09 µM	
O=C(O)c1sccc1Cc1ccsc1	> 200 µM	> 200 µM	
CC(=O)Nc1ccc(C(=O)NN2C(=O)C(Cl)C2c2cccc([N+](=O)[O-])c2)cc1 (stereo not drawn)	> 200 µM	85.1 µM	
OC(c1cc(C(O)(C(F)(F)F)C(F)(F)F)ncn1)(C(F)(F)F)C(F)(F)F	> 200 µM	166 µM	
CS/C(=N\N=C(/C)c1ccccn1)SS/C(=N/N=C(\C)c1ccccn1)SC	> 2 µM	0.00741 µM	
O=C(/C=C/c1ccc(O)c(O)c1)OCc1ccccc1	> 12 µM	11.2 µM	
COc1cc2c(cc1OC)C1Cc3ccccc3CCN1CC2 (stereo not drawn)	> 200 µM	126 µM	
CC1=C[C@H]2O[C@@H]3C[C@H]4OC(=O)/C=C\C=C\C(C(C)O)OCC[C@@H](C)[C@H](O)C(=O)OC[C@@]2(CC1)[C@]4(C)[C@]31CO1 (stereo partly drawn)	> 0.0479 µM	0.000102 µM	
NC1=C(O)/C(=N/NS(=O)(=O)c2ccccc2)C(c2ccc3c(c2)OCO3)O1 (stereo not drawn)	> 3.72 µM	> 3.72 µM	
CCCCCCCCCCCC(=O)OCCOCCOCCOCc1ccccc1			inactive
CC1(C)CC(=O)C(=CN2C(=O)CNC2=S)C(=O)C1	> 200 µM	> 200 µM	
CN(C)CCNC(=O)c1cccc2c1Oc1cccc([N+](=O)[O-])c1O2	> 200 µM	22.4 µM	
Cc1[nH]c(=O)[nH]c(=O)c1CN1CCCCC1	> 6.46 µM	> 6.46 µM	

Structure (SMILES)	EC50	IC50	outcome
COc1ccc2nc(/N=C/N(C)C)sc2c1	> 200 µM	> 200 µM	
CN1CN(c2ccccc2)C2(CCN(Cc3csc4ccccc34)CC2)C1=O	> 200 µM	66.1 µM	
COC(=O)NNc1c([N+](=O)[O-])cnn(-c2ccccc2)c1=O	> 58.9 µM	0.295 µM	
N#CC(C#N)=C1CCCS(=O)(=O)c2ccccc21	> 200 µM	> 200 µM	
O=P(Nc1ccccc1)(Nc1ccccc1)Nc1ccccc1	> 155 µM	141 µM	
O=C1C[C@@H](Sc2ccccc2)C2(OCCO2)C2ON3CCCC[C@H]3[C@H]12 (stereo partly drawn)	> 200 µM	1.82 µM	
COc1cc2c(cc1OC)C1(c3ccc(Cl)cc3)ON=C(c3ccccc3)N1CS2 (stereo not drawn)	> 6.17 µM	> 6.17 µM	
COc1ccc2c(c1)[n+]([O-])c(/C(C)=N/NC(N)=S)c(C)[n+]2[O-]	> 209 µM	102 µM	
CCN(CC)CCCNc1ccc([N+](=O)[O-])c2nc3ccc(OC)cc3c(NCCCN(CC)CC)c12	> 50.1 µM	0.234 µM	
CCOC(=O)CCC(NC(=O)c1ccc(N2CCN(c3c(C)nc(N)nc3N)CC2)cc1)C(=O)OCC (stereo not drawn)	> 0.2 µM	0.0427 µM	
COc1ccc(C2Oc3c(cccc3OC)C=C2[N+](=O)[O-])cc1 (stereo not drawn)	> 200 µM	1.51 µM	
C[C@H]1CC[C@@H]2[C@@H](C)[C@H]3[C@H](C[C@H]4[C@@H]5CC=C6C[C@@H](O)CC[C@]6(C)[C@H]5C[C@H](O)[C@]34C)N2C1			inactive
CC(=O)N1CN2C(=O)CCC2c2ccccc21 (stereo not drawn)			inactive
CCCCCCC(=O)COP(=O)(OCC(=O)CCCCCC)OCC1C=CC(n2cc(C)c(=O)[nH]c2=O)O1 (stereo not drawn)	0.562 µM	174 µM	
O=C1CC2CCCC(C1)S2=O (stereo not drawn)	> 1450 µM	> 1450 µM	
CCOC(=O)C(CCCCn1cnc2ncnc(Cl)c21)(NC(C)=O)C(=O)OCC			inactive
CC(=O)c1c2c(cc3c1CC1(Cc4cc5c(cc4C1)CCC5)C3)CCC2	> 200 µM	> 200 µM	
C=CCn1c(-c2ccc(-c3cs/c(=N\N=O)n3CC=C)cc2)cs/c1=N\N=O	> 100 µM	> 100 µM	
Cc1cc(C2(c3cc(C)c(O)c(Br)c3)OS(=O)(=O)c3ccccc32)cc(Br)c1O	> 200 µM	> 200 µM	
[Br][Sn]12[c]3ccccc3CN(Cc3cccc[c]31)Cc1cccc[c]12	> 200 µM	> 200 µM	
CN(C)c1ccc(-c2nc3c(=O)n(C)c(=O)n(C)c3nc2-c2ccc(N(C)C)cc2)cc1	> 200 µM	126 µM	
OC12COc3ccccc3C1Oc1ccccc1C2 (stereo not drawn)			inactive

Structure (SMILES)	EC50	IC50	outcome
CCOCCCCS(=O)(=O)O	> 200 µM	> 200 µM	
CC(C)=CC(=O)C/C(=N\NC(N)=S)C(=O)Nc1ccc(Cl)cc1	> 37.2 µM	> 37.2 µM	
CS(=O)CCN=Cc1ccc(N=Nc2ccc(O)cc2)cc1 (stereo not drawn)	> 200 µM	1.78 µM	
Cc1[nH]c(=O)nc2nc3cc(Cl)cc(Cl)c3c(NC(C)(CO)CO)c12	> 200 µM	> 200 µM	
Cc1ccc(-c2c3nc(c(-c4ccc(C)cc4)c4ccc([nH]4)c(-c4ccc(C)cc4)c4nc(c(-c5ccncc5)c5ccc2[nH]5)C=C4)C=C3)cc1.Cc1ccc(-c2c3nc(c(-c4ccc(C)cc4)c4ccc([nH]4)c(-c4ccc(C)cc4)c4nc(c(-c5ccncc5)c5ccc2[nH]5)C=C4)C=C3)cc1.O=S(=O)([O-])C(F)(F)F.[Pt+2].c1ccc([PH+](CCC[PH+](c2ccccc2)c2ccccc2)c2ccccc2)cc1			inactive
CC1CCCCC12NC(=O)NC2=O (stereo not drawn)	> 200 µM	> 200 µM	
C1#CCSCC#CCSC1	> 42.7 µM	> 42.7 µM	
Cc1nc(Cl)c(Cl)c(Cl)n1			inactive
c1ccc(OCc2nnc(CCCCCCCCc3nnc(COc4ccccc4)o3)o2)cc1	> 200 µM	> 200 µM	
CCOC(=O)/C=C/SC(C)(C)C(N)C(=O)O (stereo not drawn)	> 1000 µM	> 1000 µM	
CCCc1cc(=O)oc2c3c(c4c(c12)OC(C)(C)C=C4)O[C@@H](C)[C@H](C)C3=O	4.9 µM	97.7 µM	
CN1C2CCC1CC1(C2)SCCS1			inactive
Cc1cccc(/C=N/NC(=S)NCc2ccccn2)n1	> 200 µM	29.5 µM	
NNC(=O)/C(=C/c1ccc(Cl)cc1Cl)NC(=O)c1ccccc1	> 135 µM	110 µM	
CCCCC(CC)C(=O)OC(C)CN(CC(C)OC(=O)C(CC)CCCC)C(=O)C(C)OC(=O)C(CC)CCCC (stereo not drawn)			inactive
O=c1oc2ccccc2c(O)c1/C=N/C(=S)Nc1ccccc1	> 200 µM	51.3 µM	
CC1(C)/C(=C/N=O)N(O)C(C)(C)N1O	> 200 µM	120 µM	
CCOC(=O)C(=Cc1ccc(-c2ccccc2)cc1)C(=O)OCC	> 16.2 µM	10.5 µM	
CC1(C)NN=C(SCc2ccccc2)NC1=O	40.7 µM	145 µM	
C=CCCCN1C(=O)C2C3c4ccccc4C(C=O)(c4ccccc43)C2C1=O (stereo not drawn)	> 200 µM	7.24 µM	
Oc1cc(O)c2c(c1)O[C@@H](c1ccc(O)c(O)c1)[C@H](O)C2	> 200 µM	> 200 µM	
CC(C)(C)OC(=O)[C@@H]1CCC(=S)N1Cc1ccccc1	> 200 µM	135 µM	

Structure (SMILES)	EC50	IC50	outcome
Cn1c(=O)[nH]c2nncnc2c1=O	> 200 µM	31.6 µM	
O=C(NCCCCCCCCNC(=O)c1cc(O)c(O)c(O)c1)c1cc(O)c(O)c(O)c1	> 100 µM	13.8 µM	
CN1CCCC(O)C1CNC12CC3CC(CC(C3)C1)C2 (stereo not drawn)	> 794 µM	245 µM	
OCc1ccccc1C1CSCSC1	> 219 µM	> 219 µM	
O=C(/C=C/c1c(O)ccc2ccccc12)c1ccc2ccccc2c1	> 112 µM	> 112 µM	
CNS(=O)(=O)NNS(=O)(=O)c1ccc(C)cc1	> 468 µM	145 µM	
NC(N)=NS(=O)(=O)c1ccc(N=c2c3ccccc3n(Cc3ccccc3)c3ccccc23)cc1			inactive
Cc1ccc(S(=O)(=O)/C(C#N)=C\N2CC(=O)NC2=S)cc1	> 200 µM	> 200 µM	
O=C(OC[C@H]1C[C@H]2C(=O)OCCC[C@H]2O1)c1ccccc1	> 200 µM	> 200 µM	
CN(C)c1ccc(/C=C(\C#N)c2ccc(Cl)cc2Cl)cc1	> 200 µM	3.39 µM	
CCOC(=O)c1cc(-c2ccc(OC)c(OC)c2)cn1C	> 200 µM	39.8 µM	
CCOC(=O)/C(C#N)=C/N(CC)/N=C/c1ccccc1	> 200 µM	> 200 µM	
Clc1ccccc1C(c1ccccc1)(c1ccccc1)n1ccnc1	> 200 µM	21.4 µM	
CC(C)CCCC(C)C1CCC2C3CC[C@H]4C[C@@H](NC(=O)C=C(c5cc(Cl)c(O)c(C(=O)O)c5)c5cc(Cl)c(O)c(C(=O)O)c5)CC[C@]4(C)C3CC[C@]12C (stereo partly drawn)	56.2 µM	97.7 µM	
CC1(OCc2ccccc2)C(=O)N2C1NCC2(C)C (stereo not drawn)	> 251 µM	117 µM	
Cc1nn(C(=O)c2ccc(Cl)cc2)c2c1C(c1ccccc1[N+](=O)[O-])SC(N)=N2 (stereo not drawn)	> 200 µM	105 µM	
N#CN=C(N(Cc1ccccc1)Cc1ccccc1)N(Cc1ccccc1)Cc1ccccc1	> 39.8 µM	> 39.8 µM	
C/C(=N\NC(=S)N(C)C)c1ncc[nH]1	> 234 µM	4.27 µM	
CNC1C(OC2C(OC3C(O)C(O)C(N=C(N)N)C(O)C3N=C(N)N)OC(C)C2(O)CO)OC(CO)C(O)C1O (stereo not drawn)			inactive
O=C(O)C(Cc1ccccc1)N1C(=O)N/C(=C\c2ccc(F)cc2)C1=O (stereo not drawn)			inactive
O=S1C(=c2ccc(=C3Sc4ccccc4S3)cc2)Sc2ccccc21 (stereo not drawn)			inactive
O=C(Nn1cc(F)c(=O)[nH]c1=O)C12CC3CC(CC(C3)C1)C2	> 200 µM	8.91 µM	

Source: PubChem BioAssay AID179 (DTP/NCI, 2004)
